Assay results published in ChEMBL document CHEMBL1136884, “Antiplasmodial and antitrypanosomal activity of bicyclic amides and esters of dialkylamino acids” (Bioorg Med Chem, 2009).
Active and inactive are the calls of the source. The rule behind the calls is not given here.

How the values were obtained:
[1] = Selectivity index, ratio of IC50 for rat L6 cells to IC50 for Plasmodium falciparum K1; format: toxicity, cell-based; conditions: L6 cells (versus Plasmodium falciparum K1), read-out: Ratio IC50
[2] = tested on: Trypanosoma brucei rhodesiense; experiment: Antitrypanosomal activity against Trypanosoma brucei rhodesiense after 72 hrs by alamar blue assay; format: functional, organism-based
[3] = tested on: Plasmodium falciparum; experiment: Antimalarial activity against chloroquine and pyrimethamine-resistant Plasmodium falciparum K1 after 48 hrs as [3H]hypoxanthine uptake; format: functional, organism-based
[4] = Selectivity index, ratio of IC50 for rat L6 cells to IC50 for Trypanosoma brucei rhodesiense; format: toxicity, cell-based; conditions: L6 cells (versus Trypanosoma brucei rhodesiense), read-out: Ratio IC50
[5] = tested on: L6; experiment: Cytotoxicity against rat L6 cells after 72 hrs by alamar blue assay; format: cell-based; conditions: L6, 72 h
[6] = tested on: Plasmodium berghei; experiment: Antiplasmodial activity as increased MST against Plasmodium berghei ANKA infected Fu albino mice (Mus musculus) at 0.01 mL/kg intraperitoneal dose after 24 hrs; format: functional, organism-based
[7] = tested on: Plasmodium berghei; experiment: Antiplasmodial activity against Plasmodium berghei ANKA infected Fu albino mice (Mus musculus) at 0.01 mL/kg intraperitoneal dose at 24 hrs as parasitaemia per 1000 erythrocytes; format: functional

Row | Compound | selectivity ratio [1] | IC50 [2] | IC50 [3] | selectivity ratio [4] | IC50 [5] | Activity [6] | Activity [7]
1 | CN1CCN(CC(=O)NC2CC3(N(C)C)CC(c4ccccc4)C2C(c2ccccc2)C3)CC1 (racemic) | 25.7 | 1600 nM | 2580 nM | 41.4 | 66.2 µM | – | –
2 | O=C(CN1CCCC1)OC1CC2(N3CCCCC3)CC(c3ccccc3)C1C(c1ccccc1)C2 (centres undefined) | 34.9 | 320 nM | 470 nM | 51.2 | 16.4 µM | – | –
3 | CCN(CC)CC(=O)OC1CC2(N(C)C)CC(c3ccccc3)C1C(c1ccccc1)C2 (centres undefined) | 11.1 | 610 nM | 2720 nM | 49.4 | 30.1 µM | – | –
4 | CCN(CC)CC(=O)OC1CC2(N3CCCC3)CC(c3ccccc3)C1C(c1ccccc1)C2 (centres undefined) | 245 | 720 nM | 200 nM | 68.1 | 49 µM | – | –
5 | O=C(CN1CCCCC1)OC1CC2(N3CCCCC3)CC(c3ccccc3)C1C(c1ccccc1)C2 (centres undefined) | 336 | 870 nM | 180 nM | 69.4 | 60.4 µM | – | –
6 | O=C(CN1CCCCC1)OC1CC2(N3CCCC3)CC(c3ccccc3)C1C(c1ccccc1)C2 (centres undefined) | 38.4 | 370 nM | 370 nM | 38.4 | 14.2 µM | – | –
7 | c1ccc(C2CC3(N4CCCCC4)CCNC2C(c2ccccc2)C3)cc1 (centres undefined) | 140 | 6570 nM | 640 nM | 13.7 | 89.7 µM | – | –
8 | NC1CC2(N3CCCC3)CC(c3ccccc3)C1C(c1ccccc1)C2 (centres undefined) | 58.6 | 410 nM | 650 nM | 92.9 | 38.1 µM | – | –
9 | CN1CCN(CCC(=O)NC2CC3(N(C)C)CC(c4ccccc4)C2C(c2ccccc2)C3)CC1 (racemic) | 22.7 | 2740 nM | 4190 nM | 34.7 | 95 µM | – | –
10 | c1ccc(C2CC3(N4CCCC4)CCNC2C(c2ccccc2)C3)cc1 (centres undefined) | 215 | 1160 nM | 560 nM | 104 | 120 µM | – | –
11 | CCN(CC)CCCC(C)Nc1ccnc2cc(Cl)ccc12 (centres undefined) [CHLOROQUINE] | – | – | – | – | 188 µM | – | –
12 | CN1CCN(CC(=O)N2CCC3(N4CCCCC4)CC(c4ccccc4)C2C(c2ccccc2)C3)CC1 (racemic) | 286 | 92000 nM | 620 nM | 1.93 | 177 µM | – | –
13 | C[C@@H]1CC[C@H]2[C@@H](C)C(=O)O[C@@H]3O[C@@]4(C)CC[C@@H]1[C@]32OO4 [ARTEMISININ] | 70400 | – | 6.4 nM | – | 450 µM | – | –
14 | CN1CCN(CC(=O)N2CCC3(N(C)C)CC(c4ccccc4)C2C(c2ccccc2)C3)CC1 (racemic) | 82.4 | 45800 nM | 2370 nM | 4.27 | 195 µM | – | –
15 | NC1CC2(N3CCCCC3)CC(c3ccccc3)C1C(c1ccccc1)C2 (centres undefined) | 63.5 | 270 nM | 550 nM | 129 | 35 µM | – | –
16 | Nc1nc(N)nc(Nc2ccc([As]3SCC(CO)S3)cc2)n1 (centres undefined) [MELARSOPROL] | – | 3.9 nM | – | 2000 | 7.78 µM | – | –
17 | CN1CCN(CC(=O)OC2CC3(N(C)C)CC(c4ccccc4)C2C(c2ccccc2)C3)CC1 (racemic) | 114 | 130 nM | 350 nM | 307 | 39.9 µM | – | –

Row | Compound | selectivity ratio [1] | IC50 [2] | IC50 [3] | selectivity ratio [4] | IC50 [5] | Activity [6] | Activity [7]
18 | CN1CCN(CCC(=O)NC2CC3(N4CCCC4)CC(c4ccccc4)C2C(c2ccccc2)C3)CC1 (racemic) | 41.7 | 4150 nM | 2080 nM | 20.9 | 86.7 µM | – | –
19 | CN(C)C12CC(OC(=O)CN3CCCC3)C(C(c3ccccc3)C1)C(c1ccccc1)C2 (centres undefined) | 46 | 210 nM | 710 nM | 156 | 32.7 µM | – | –
20 | CN1CCN(CCC(=O)NC2CC3(N4CCCCC4)CC(c4ccccc4)C2C(c2ccccc2)C3)CC1 (racemic) | 218 | 860 nM | 280 nM | 71 | 61.1 µM | – | –
21 | CN(C)C12CC(N)C(C(c3ccccc3)C1)C(c1ccccc1)C2 (centres undefined) | 67 | 350 nM | 610 nM | 117 | 40.9 µM | – | –
22 | NCC(=O)OC1CC2(N3CCCC3)CC(c3ccccc3)C1C(c1ccccc1)C2 (centres undefined) | 61.3 | 230 nM | 700 nM | 187 | 42.9 µM | – | –
23 | CN1CCN(CC(=O)NC2CC3(N4CCCCC4)CC(c4ccccc4)C2C(c2ccccc2)C3)CC1 (racemic) | 151 | 690 nM | 380 nM | 83.4 | 57.5 µM | – | –
24 | CN1CCN(CCC(=O)N2CCC3(N4CCCCC4)CC(c4ccccc4)C2C(c2ccccc2)C3)CC1 (racemic) | 200 | 30800 nM | 600 nM | 3.89 | 120 µM | – | –
25 | CN(C)C12CCNC(C(c3ccccc3)C1)C(c1ccccc1)C2 (centres undefined) | 389 | 600 nM | 280 nM | 181 | 109 µM | – | –
26 | CN1CCN(CCC(=O)N2CCC3(N(C)C)CC(c4ccccc4)C2C(c2ccccc2)C3)CC1 (racemic) | 73.5 | 28200 nM | 1740 nM | 4.52 | 128 µM | – | –
27 | CN1CCN(CC(=O)N2CCC3(N4CCCC4)CC(c4ccccc4)C2C(c2ccccc2)C3)CC1 (racemic) | 83.2 | 41100 nM | 830 nM | 1.68 | 69.1 µM | – | –
28 | CN1CCN(CC(=O)OC2CC3(N4CCCC4)CC(c4ccccc4)C2C(c2ccccc2)C3)CC1 (racemic) | 45.5 | 140 nM | 540 nM | 176 | 24.6 µM | – | –
29 | CN1CCN(CCC(=O)N2CCC3(N4CCCC4)CC(c4ccccc4)C2C(c2ccccc2)C3)CC1 (racemic) | 83.8 | 31900 nM | 900 nM | 2.36 | 75.4 µM | – | –
30 | CN(C)C12CC(OC(=O)CN3CCCCC3)C(C(c3ccccc3)C1)C(c1ccccc1)C2 (centres undefined) | 56.3 | 1990 nM | 520 nM | 14.7 | 29.3 µM | – | –
31 | CN1CCN(CC(=O)OC2CC3(N4CCCCC4)CC(c4ccccc4)C2C(c2ccccc2)C3)CC1 (racemic) | 278 | 870 nM | 106 nM | 33.9 | 29.5 µM | inactive | 15%
32 | CN1CCN(CC(=O)NC2CC3(N4CCCC4)CC(c4ccccc4)C2C(c2ccccc2)C3)CC1 (racemic) | 61.3 | 1130 nM | 820 nM | 44.5 | 50.2 µM | – | –
33 | CCN(CC)CC(=O)OC1CC2(N3CCCCC3)CC(c3ccccc3)C1C(c1ccccc1)C2 (centres undefined) | 95.7 | 560 nM | 250 nM | 42.7 | 23.9 µM | – | –
